The results in this text go back to patent US20200383985A1, “Inhibitors of Protease Activated Receptor-2” (Endosome Therapeutics, Inc., priority 2017, published 2020).

The subject of one test is mice. The experiment in a line: Visceromotor response (VMR) to colorectal distension (CRD). The conditions noted are these: 30 mg/kg, 100 μL enema into the colon, 30 min before the protease mixture. The format is in vivo, mouse. On the procedure: Noxious colorectal distension (CRD) triggers the visceromotor response (VMR), a nociceptive brainstem reflex consisting of contraction of abdominal muscles, which can be monitored by electromyography. This approach allows assessment of visceral sensitivity in awake mice (Castro, J. et al., Br. J. Pharmacol. 2017, 175(12): 2384-2398). To examine protease-induced hy-persensitivity, a protease mixture (10 nM trypsin+100 nM NE+100 nM CS) or vehicle (saline) (100 μL) was instilled into the colon (enema) of healthy mice. After 15 min, the VMR was measured in response to graded CRD (20-80 mm Hg) with a barostat balloon. In vehicle-treated mice, CRD induced a graded VMR (FIG. 9I). […] Because alterations in the compliance of the colon can alter VMR to CRD, the pressure/volume relationship was measured at all distending pressures. Compliance of the colon was unaffected by the protease mixture or I-343 (FIGS. 21E and F). […]
Electromyography (EMG) of abdominal muscles was used to monitor VMR to CRD (Eichel, K. et al., Nat. Cell Biol. 2016, 18(3): 303-310). […] The EMG signal was recorded (NL100AK headstage), amplified (NL104), filtered (NL 125/126, Neurolog, Digitimer Ltd, bandpass 50-5000 Hz), and digitized (CED 1401, Cambridge Electronic Design) for off-line analysis using Spike2 (Cambridge Electronic Design). […]

A further test concerns DRG neurons. Put plainly: Ca2+ assays in DRG neurons. Type of test: cell-based, mouse. The conditions noted are these: trypsin 100 nM. An excerpt: Proteases may induce pain by activating PAR2 on nociceptors or other cell types. To determine the contribution of PAR2 on nociceptors, mice were bred expressing PAR2 flanked by LoxP sites (Par2^lox/lox) with mice expressing Cre recombinase targeted to nociceptors using the NaV1.8 promoter (Scn10a) (Stirling L. C. et al., Pain 2005, 113(1-2): 27-36). Par2-NaV1.8 mice lacked immunoreactive PAR2 in NaV1.8-positive nociceptors (FIG. 1A). Whereas 31% (20 of 65) of small-diameter (<25 μm) DRG neurons from WT mice responded to trypsin (100 nM) with increased [Ca^2+]i, only 6% (3 of 51) of neurons from Par2-NaV1.8 mice responded (FIGS. 1B, 11A, and 11B). Nociception was assessed by measuring withdrawal responses to stimulation of the plantar surface of the hindpaw with von Frey filaments. […] In Par2-NaV1.8 mice, the initial responses were maintained, but responses after 120 min were diminished. […] Trypsin-induced inflammation was markedly diminished in Par2-NaV1.8 mice.
[Ca^2+]i was measured in DRG neurons from WT and Par2-NaV1.8 mice, as described (Tsvetanova, N. G., et al., Nat. Chem. Biol. 2014, 10(12): 1061-1065). […] Fluorescence of individual neurons was measured at 340 nm and 380 nm excitation and 530 nm using a Nikon Eclipse Ti microscope with 20× magnification and a Photometrics CoolSNAP camera. Data were analyzed using Nikon Ti Element Software. […]

With `Cc1nc(C(=O)N2CCN(C(=O)c3cn4nc(-c5ccc(F)cc5)cc(C(C)(C)C)c4n3)C(C)(C)C2)n[nH]1` [Compound I-343, (8-(tert-butyl)-6-(4-fluorophenyl)imidazo[1,2-b]pyridazin-2-yl)(2,2-dimethyl-4-(5-methyl-1H-1,2,4-triazole-3-carbonyl)piperazin-1-yl)methanone], the “protease mixture-amplified VMR to CRD” value with mice is “abolished the response”.
Consider trypsin, for which, in the test with DRG neurons (3 of 51 neurons), the “small-diameter DRG neurons responding with increased [Ca2+]i, Par2-NaV1.8 mice” value came out at 6%. In addition, in the test on DRG neurons (20 of 65 neurons), the “small-diameter DRG neurons responding with increased [Ca2+]i, WT mice” value was 31%.
